Assay results: patent US6727227B1, “Tetrapetide revealing geroprotective effect, pharmacological substance on its basis, and the method of its application” (Obschestvo S Ogranichennoi Otvetstven-Nostiju “Klinika …, priority 2002, dated 2004)
Residues, ends and D or L forms follow the SMILES beside them.

How the values were obtained:
rats = experiment: Chronic toxicity, 6 months; type: in vivo; details: intramuscularly daily during 6 months, 1 μg/kg, 0.1 mg/kg, 1 mg/kg
Method: The animals were exposed daily to a single administration of the drug intramuscularly in doses 1 μg/kg, 0.1 mg/kg, 1 mg/kg in 0.5 ml of sodium chloride solution during 6 months. Behaviour of the animals, their rations and water consumption, the state of their hair integument and mucous membranes were registered. The animals were weighed daily during the first 3 months of the experiment and then once a month. Haematological and biochemical studies were carried out 3 months after the onset of drug administration and upon experiment completion. Functions of the cardiovascular system, liver, pancreas, kidneys, and adrenal glands were assessed. Upon the end of drug administration some animals were subjected to pathomorphological examination for the purpose of estimating the condition of various sections of the brain and spinal marrow, heart, aorta, lungs, liver, kidneys, organs of the endocrine and immune systems.

catalase = experiment: Catalase activity in homogenates of 7-day old flies of EA strain; type: in vivo, Drosophila melanogaster of EA strain
Method: Drosophila melanogaster of EA strain served as a model for studying the influence of L-Ala-L-Glu-L-Asp-Gly tetrapeptide (SEQ ID NO: 1) on catalase activity, tissue chemoluminescence, and life span.
L-Ala-L-Glu-L-Asp-Gly tetrapeptide (SEQ ID NO: 1) was applied in the larvae of the 3rd age in dose 0.00001% of the culture medium weight, which constituted approximately 0.015 mg/100 ml. Catalase activity and the intensity of chemoluminescence were estimated in the homogenates of adult 7-day old flies by generally accepted methods. The experiment was conducted with a subsequent 5 repetition.
Regression and dispersal analyses served as the basic technique of statistic processing.

white outbred male mice = experiment: Acute toxicity according to Kerber; type: in vivo
Method: The purpose of the study was to define tolerable toxic doses of the preparation, to estimate the stage and character of pathologic alterations in various organs and systems of the organism, and to identify the correlation between the toxic dose-related effect and the duration of the drug application.
The investigation was carried out on 66 white outbred male mice weighing 20 to 23 g, which were kept under standard regimen and fed upon standard rations in vivarium conditions. The animals were randomly divided into 6 equal groups of 11 mice in each. The animals were exposed to a single administration of the drug intramuscularly, 0.25 ml in doses 1 mg/kg, 2 mg/kg, 3 mg/kg, 4 mg/kg and 5 mg/kg (several thousand times exceeding the therapeutic dose recommended for clinical trial). Control animals were administered the same amount of sodium chloride.

[1] = tested on: Drosophila melanogaster of HEM strain; experiment: Luminol-dependent tissue chemoluminescence in flies of HEM strain; type: in vivo; details: 0.00001% of culture medium weight
From the text: L-Ala-L-Glu-L-Asp-Gly tetrapeptide (SEQ ID NO: 1) was applied in Drosophila melanogaster larvae of the 2nd age of HEM strain selected for a high ageing rate (20). HEM strain is characterised by the unique dynamics of embryonic mortality, which consists in an increased frequency of early embryonic lethal outcomes from 65% on the 1st day of egg-laying up to 95% on the 4th day, in a reduced average life span (29 days), and in a raised intensity of lipid peroxide oxidation.
L-Ala-L-Glu-L-Asp-Gly tetrapeptide (SEQ ID NO: 1) was added in proportion 0.00001% of the culture medium weight, which was an extremely low dose. The doses described in literature on the influence of various substances on Drosophila melanogaster usually ranged from 0.001 to 0.01%.
Biochemical parameters were studied on 14-day old flies. Among them the activity of catalase activity and the intensity of tissue chemoluminescence were analysed (21, 22, 23). Catalase is the basic enzyme of anti-oxidation defence. […] Luminol-dependent chemoluminescence, induced by hydrogen peroxide, reflects the stage of active oxygen forms in tissues. Thus, a decrease in the chemoluminescence intensity indicates an increase in the organism ability to resist oxidative stress.

[2] = single intramuscular administration, 1-5 mg/kg

C[C@H](N)C(=O)N[C@@H](CCC(=O)O)C(=O)N[C@@H](CC(=O)O)C(=O)NCC(=O)O [L-Ala-L-Glu-L-Asp-Gly tetrapeptide, L-alanyl-L-glutamyl-L-aspartyl-glycine] (H-AEDG-OH)
Pathologic alterations (general state, blood indices, intrinsic organs, cardiovascular, respiratory, liver, kidney) (rats): no pathologic alterations | Side effects, chronic toxicity (rats): absence of side effects | Specific activity of catalase (catalase; females): 82.78 ± 2.957 μmole H2O2/mg of protein per min. | Specific activity of catalase (catalase; males): 100.39 ± 3.807 μmole H2O2/mg of protein per min. | Acute toxic reactions (white outbred male mice; doses several thousand times exceeding the therapeutic one): does not induce acute toxic reactions | Alterations in general state, behaviour, locomotor activity, hair and skin integument, physiological discharges (white outbred male mice; [2]): No alterations | Deaths within 72 hours and in 14 days (white outbred male mice; [2]): none of the animals in either of the groups died | Chemoluminescence ([1]; females): 7.9 ± 0.91 conv. unit/mg of protein | Chemoluminescence ([1]; males): 2.03 ± 0.182 conv. unit/mg of protein
